According to patent US9980943B2, “Methods of treating muscular dystrophy” (BOARD OF REGENTS OF THE NEVADA SYSTEM OF HIGHER EDUCATION, …, priority 2013, dated 2018):

What was measured:
Type in all cases: cell-based, mouse
[1] = system: α7 integrin (LacZ reporter in α7βgal+/− myoblasts); assay: Myoblast α7+/LacZ integrin FDG assay (Burkin assay in myoblasts, 96-well); conditions: α7+/LacZ myoblasts, 96-well
[2] = system: β-galactosidase in CMV-LacZ C2C12 myotubes; assay: CMV-LacZ secondary screen in C2C12 myotubes (β-Gal stabilizing assay); conditions: C2C12 CMV-LacZ myotubes, fold relative to DMSO
How it was run: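 Dose-response runs at 0.5–40 μM (0.5, 1, 5, 10, 20, 40 μM; N=2 per point) used a clonal C2C12 line carrying CMV-LacZ. Cells were assayed as myoblasts or as differentiated myotubes, and β-galactosidase levels were read with the FDG fluorogenic substrate.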

[3] = system: α7 integrin (LacZ reporter in α7+/LacZ myotubes); assay: Myotube α7 integrin FDG assay (Burkin assay in myotubes, 96-well); conditions: myotubes
[4] = system: β-galactosidase in CMV-LacZ C2C12 myoblasts; assay: CMV-LacZ secondary screen in C2C12 myoblasts (β-Gal stabilizing assay); conditions: CMV-LacZ C2C12 myoblasts
Excerpt: In order to determine compounds that acted to stabilize β-gal in myogenic cells, a CMV-LacZ C2C12 cell line was used in a secondary screen. The EGFP gene from the pEGFP (Clontech) vector was replaced by LACZ PCR product with digests of the vector/PCR product performed using EcoRI (NEB) and NotI (NEB) and ligated using T4 DNA Ligase (NEB) following standard procedures to produce the CMV-LACZ vector. The LACZ gene was generated by PCR from the pBK-RSV (Stratagene) vector using primers LACZ EcoRI F- and LACZ NotI R-. The CMV-LACZ vector was then digested with AfIII (NEB) to linearize the construct, which was then transfected in C2C12 myoblasts using Lipofectamine 2000 (Invitrogen) following the manufacturer's instructions. […] Clonal lines were selected and screened for βgal levels using the myoblast FDG assay.
The assays were used the original 96-well format and new dose-response curves for myoblasts (N=3-6 replicates for each data point), myotubes (N=3-6 replicates for data point), and CMV-LacZ secondary assay (N=2 replicates for each data point) using concentrations of 0.5 μM, 1 μM, 5 μM, 10 μM, 20 μM, and 40 μM (Tables 9-16).

Structure (SMILES)	Burkin Assay in Myoblasts, signal relative to DMSO ([1]; 0.5 uM)	Burkin Assay in Myoblasts, signal relative to DMSO ([1]; 1 uM)	Burkin Assay in Myoblasts, signal relative to DMSO ([1]; 5 uM)	Burkin Assay in Myoblasts, signal relative to DMSO ([1]; 10 uM)	Burkin Assay in Myoblasts, signal relative to DMSO ([1]; 20 uM)	Burkin Assay in Myoblasts, signal relative to DMSO ([1]; 40 uM)	CMV-LACZ in Myotubes, signal relative to DMSO ([2]; 0.5 uM)	CMV-LACZ in Myotubes, signal relative to DMSO ([2]; 1 uM)	CMV-LACZ in Myotubes, signal relative to DMSO ([2]; 5 uM)	CMV-LACZ in Myotubes, signal relative to DMSO ([2]; 10 uM)	CMV-LACZ in Myotubes, signal relative to DMSO ([2]; 20 uM)	CMV-LACZ in Myotubes, signal relative to DMSO ([2]; 40 uM)	Burkin Assay in Myotubes, α7 integrin LacZ reporter signal relative to DMSO ([3]; 0.5 uM)	Burkin Assay in Myotubes, α7 integrin LacZ reporter signal relative to DMSO ([3]; 1 uM)	Burkin Assay in Myotubes, α7 integrin LacZ reporter signal relative to DMSO ([3]; 5 uM)	Burkin Assay in Myotubes, α7 integrin LacZ reporter signal relative to DMSO ([3]; 10 uM)	Burkin Assay in Myotubes, α7 integrin LacZ reporter signal relative to DMSO ([3]; 20 uM)	Burkin Assay in Myotubes, α7 integrin LacZ reporter signal relative to DMSO ([3]; 40 uM)	CMV-LACZ in Myoblasts (β-galactosidase activity relative to DMSO) ([4]; 0.5 uM)	CMV-LACZ in Myoblasts (β-galactosidase activity relative to DMSO) ([4]; 1 uM)	also measured
Cc1ccccc1NC(=O)c1ccc2c(O)c(S(=O)(=O)c3ccccc3)c(=O)[nH]c2c1 [MLS001122698-01]	0.9829	0.8573	1.008	0.9652	0.9061	0.8389	1.0019	1.0133	1.2038	1.1482	1.0340	1.0110	0.9131	0.9039	0.9575	1.03	0.9209	0.8572	1.1513	1.1003	CMV-LACZ in Myoblasts (β-galactosidase activity relative to DMSO) ([4]; 5 uM): 0.7759; CMV-LACZ in Myoblasts (β-galactosidase activity relative to DMSO) ([4]; 10 uM): 0.8608; CMV-LACZ in Myoblasts (β-galactosidase activity relative to DMSO) ([4]; 20 uM): 1.0404; CMV-LACZ in Myoblasts (β-galactosidase activity relative to DMSO) ([4]; 40 uM): 1.0639
OC(c1nc2ccc(F)cc2[nH]1)C(O)c1nc2ccc(F)cc2[nH]1 (stereo not drawn) [MLS001182368-01]	1.081	1.215	0.914	0.8945	1.001	0.8952	0.8667	1.0619	0.8931	0.8690	0.9953	1.0318	1.044	1.0792	1.2117	1.02	0.9097	0.9193	0.9571	0.8783	CMV-LACZ in Myoblasts (β-galactosidase activity relative to DMSO) ([4]; 5 uM): 1.0528; CMV-LACZ in Myoblasts (β-galactosidase activity relative to DMSO) ([4]; 10 uM): 0.9225; CMV-LACZ in Myoblasts (β-galactosidase activity relative to DMSO) ([4]; 20 uM): 1.2322; CMV-LACZ in Myoblasts (β-galactosidase activity relative to DMSO) ([4]; 40 uM): 1.1615
N#CC1=C2SCN(c3ccccc3)CN2C(=O)CC1c1cccs1 (stereo not drawn) [MLS000080654-01]	0.9788	0.923	0.9235	0.9429	1.112	0.9166	1.1229	1.0086	1.0335	1.0399	1.1871	1.4259	1.067	1.092	0.9044	0.9707	0.7422	0.6217	1.1851	1.4314	CMV-LACZ in Myoblasts (β-galactosidase activity relative to DMSO) ([4]; 5 uM): 1.0703; CMV-LACZ in Myoblasts (β-galactosidase activity relative to DMSO) ([4]; 10 uM): 0.9345; CMV-LACZ in Myoblasts (β-galactosidase activity relative to DMSO) ([4]; 20 uM): 1.0174; CMV-LACZ in Myoblasts (β-galactosidase activity relative to DMSO) ([4]; 40 uM): 0.8815
Cc1ccccc1-n1c(Cc2cccs2)n[nH]c1=S [MLS000568234-01]	1.094	1.032	1.136	1.373	1.106	1.011	1.3844	1.2622	1.0764	0.9074	0.9918	0.9141	1.08	1.167	0.9642	1.09	0.8694	0.9705	0.9556	0.9372	CMV-LACZ in Myoblasts (β-galactosidase activity relative to DMSO) ([4]; 5 uM): 0.9043; CMV-LACZ in Myoblasts (β-galactosidase activity relative to DMSO) ([4]; 10 uM): 0.9894; CMV-LACZ in Myoblasts (β-galactosidase activity relative to DMSO) ([4]; 20 uM): 0.8819; CMV-LACZ in Myoblasts (β-galactosidase activity relative to DMSO) ([4]; 40 uM): 0.7322
